From patent US20020099206A1, “Cephalosporin crystals and process for their preparation” (priority 1997, published 2002)

Assay: stability of Compound (1a) under crystallization conditions (Comparative Test Examples 1 and 2)
Type: physicochemical
Experimental: Subsequently, stability of Compound (1a) under crystallization conditions was tested. The results are shown in the following Comparative Test Examples 1 and 2.
200 mg of oily 7-phenylacetamido-3-chloromethyl-cephem-4-carboxylic acid p-methoxybenzyl ester was dissolved in 0.2 ml of dimethylformamide. The solution was pored into 1 ml of methanol precooled to 3° C. to precipitate crystals. The mixture was stirred at 3 to 5° C. for 20 hours. Then, an ethyl acetate/water mixture was added to dissolve the crystals, and the solution was subjected to extraction. The organic layer was dried over sodium sulfate. The resulting solution was filtered, and the filtrate was concentrated under reduced pressure. The concentrate was purified by silica gel chromatography (Wako gel C-200, benzene/ethyl acetate=4/1), giving 197 mg of oily 7-phenylacetamido-3-chloromethyl-cephem-4-carboxylic-acid-p-methoxybenzyl ester (yield: 99%).
200 mg of oily 7-phenylacetamido-3-chloromethyl-cephem-4-carboxylic acid p-methoxybenzyl ester was dissolved in 0.2 ml of dimethylformamide. The solution was pored into 1 ml of methanol to precipitate crystals. The mixture was stirred at 30 to 35° C. for 20 hours. Then, an ethyl acetate/water mixture was added to dissolve the crystals, and the solution was subjected to extraction. The organic layer was dried over sodium sulfate. The resulting solution was filtered, and the filtrate was concentrated under reduced pressure.
For example, thin-layer chromatography of the obtained product (conditions: Merk Pre-Coated TLC Plates SILICA GEL 60F254 (Merk); benzene/ethyl acetate=4/1) developed color in zones corresponding to 7-phenylacetamide-3-chloromethyl-cephem-4-carboxylic acid p-methoxybenzyl ester (Compound (1a)) (Rf=0.46), 7-phenylacetamide-3-methoxymethyl-cephem-4-carboxylic acid p-methoxybenzyl ester (Compound A) (Rf=0.33) and decomposition product of Compound (1a) (Rf≈0, in the vicinity of the placing point). […]

[1] = dimethylformamide solution poured into uncooled methanol, stirred at 30 to 35° C. for 20 hours

COc1ccc(COC(=O)C2=C(CCl)CS[C@@H]3C(NC(=O)Cc4ccccc4)C(=O)N23)cc1 (stereo partly drawn) [Compound (1a), 7-phenylacetamido-3-chloromethyl-cephem-4-carboxylic acid p-methoxybenzyl ester]
7-phenylacetamido-3-chloromethyl-cephem-4-carboxylic acid p-methoxybenzyl ester recovered (yield) (dimethylformamide solution poured into methanol precooled to 3° C., stirred at 3 to 5° C. for 20 hours): 99%
Compound (1a) recovered (yield) [1]: 71%
highly polar component Compound A formed (yield) [1]: 9%
